Data reported in BindingDB's records for doi:10.1111/cbdd.12207 (Nirma University, 2014).

Biological target: T1, Gag-Pol polyprotein [1148-1435] (Human immunodeficiency virus 1, UniProt P04585)
T1 construct: 1148-1435
Experiment: HIV-1 Integrase Assay
Method: HIV-1 integrase inhibitory activity of compounds were determined using strand transferase inhibitory assay.

| SMILES | IC50 [µM] |
| --- | --- |
| O=C(O)C(=O)CC(=O)c1cc(OCc2ccccc2)cc(OCc2ccccc2)c1 | 0.059 |
| O=C(O)C(=O)CC(=O)c1c[nH]c2ccc(Cl)cc12 | 0.52 |
| O=c1oc2ccccc2c(O)c1C1c2ccccc2Oc2c1c(=O)oc1ccccc21 (centres undefined) | 122 |
| C=c1[nH]n(C(=O)c2ccc(Cl)cc2)c(=O)c1=Cc1ccc(O)cc1 | 293 |
| O=C(NO)c1ccc2c(c1)CCN2Cc1ccc(F)cc1F [1-[(2,4-difluorophenyl)methyl]-N-hydroxy-2,3-dihydroindole-5-carboxamide (Compound 1)] | 84 |
| O=C(NNC(=O)c1cccc(O)c1O)c1ccccc1O [2,3-dihydroxy-N'-(2-hydroxybenzoyl)benzohydrazide (Compound 17)] | 0.5 |
| O=C1C(=O)c2ccccc2C(=O)C1=Cc1c(O)c(O)c2ccccc2c1O [2-hydroxy-3-[(3-hydroxy-1,4-dioxonaphthalen-2-yl)methyl]naphthalene-1,4-dione (Compound 10)] | 20 |
| O=C(NNCc1ccccc1O)c1ccccc1O [2-hydroxy-N'-[(2-hydroxyphenyl)methyl]benzohydrazide (Compound 4)] | 0.7 |
| Oc1ccccc1CNNCC(O)COc1ccccc1 (centres undefined) [2-{[2-(2-hydroxy-3-phenoxypropyl)hydrazin-1-yl]methyl}phenol (Compound 15)] | 200 |
| O=C1c2ccccc2C(C2CCCCC2)C(=O)N1O (centres undefined) [4-cyclohexyl-2-hydroxy-4H-isoquinoline-1,3-dione (Compound 3)] | 1.35 |
| Cn1c(=O)c(C(=O)O)c(O)c2cc(-c3ccc(F)cc3)ccc21 [6-(4-fluorophenyl)-4-hydroxy-1-methyl-2-oxoquinoline-3-carboxylic acid (Compound 6)] | 23 |
| COc1cc2c(cc1OC)C(=O)N1CSCC1C(=O)S2 (centres undefined) [12,13-dimethoxy-5,9-dithia-3-azatricyclo[8.4.0.0 ,⁷]tetradeca-1(14),10,12-triene-2,8-dione (Compound 8)] | 331 |
| O=C(O)C(=O)CC(=O)c1cn(Cc2ccc(F)cc2)c2ccc(F)cc2c1=O [(2Z)-4-{6-fluoro-1-[(4-fluorophenyl)methyl]-4-oxoquinolin-3-yl}-2-hydroxy-4-oxobut-2-enoic acid (Compound 9)] | 2.3 |
| O=C1/C(=C\c2cccc(O)c2)C=NN1C(=O)c1ccccc1O [(4Z)-2-(2-hydroxybenzoyl)-4-[(3-hydroxyphenyl)methylidene]pyrazol-3-one (Compound 11)] | 7.4 |
| O=C(NCc1cc2ccccc2s1)c1nc(-c2cccs2)nc(O)c1O [N-(1-benzothiophen-2-ylmethyl)-5,6-dihydroxy-2-(thiophen-2-yl)pyrimidine-4-carboxamide (Compound 12)] | 0.01 |
| O=C(NCc1ccc(Cl)c(Cl)c1)c1nc(-c2cccs2)nc(O)c1O [N-[(3,4-dichlorophenyl)methyl]-5,6-dihydroxy-2-(thiophen-2-yl)pyrimidine-4-carboxamide (Compound 14)] | 0.01 |
| O=C(Nc1ncnc2c1ncn2Cc1ccc(F)cc1)c1ccc2cccnc2c1O [N-{9-[(4-fluorophenyl)methyl]purin-6-yl}-8-hydroxyquinoline-7-carboxamide (Compound 20)] | 11.2 |
| COC(=O)c1ccc2cc(CCc3ccc(O)c(O)c3)oc2c1 [methyl 2-[2-(3,4-dihydroxyphenyl)ethyl]-1-benzofuran-6-carboxylate (Compound 18)] | 43.8 |
| COC(=O)c1ccc(CC(=O)c2cc(C=O)c(O)cc2C)c(C)c1O [methyl 4-[2-(5-formyl-4-hydroxy-2-methylphenyl)-2-oxoethyl]-2-hydroxy-3-methylbenzoate (Compound 5)] | 123 |
